In publication PMC5640650, “NatD promotes lung cancer progression by preventing histone H4 serine phosphorylation to activate Slug expression” (Nature Communications, 2017):

What was measured:
H1299 cells = assay: qPCR and western blot of EMT and proliferation genes, H1299 cells; assay type: cell-based, human
Text: Fig. 4 Silencing NatD suppresses cancer cell EMT by downregulating Slug. a Representative phase contrast images of Scr and NatD-KD H1299 cells treated with TGF-β1. Data are representative of three independent experiments. Scale bar, 100 μm. b Quantitative real-time PCR analysis of mRNA levels of indicated key EMT-related genes in Scr and NatD-KD H1299 cells normalized to GAPDH in the absence or presence of TGF-β1. Results are shown as mean ± s.d. of three independent experiments. Two-tailed Student’s t-test was used. **P < 0.01 or *P < 0.05 compared with the indicated control. c Western blot analysis of indicated protein levels in Scr and NatD-KD H1299 cells in the absence or presence of TGF-β1. GAPDH served as a loading control. Data are representative of three independent experiments. d Immunofluorescence analysis of Scr and NatD-KD H1299 cells in the absence or presence of TGF-β1 stained for E-cadherin and N-cadherin. Data are representative of three independent experiments. Scale bar, 20 μm. Migration (e, top) and invasion (f, top) of Scr cells, NatD-KD cells, and NatD-KD cells with enforced Slug expression (NatD-KD + Slug). (bottom panels) Cells were counted in at least four random microscope fields (×100 magnification) for the corresponding assays; migration and invasion are expressed as a percentage of control. Results are shown as mean ± s.d. of three independent experiments. Two-tailed Student’s t-test was used. **P < 0.01 compared with the indicated control. g Quantitative real-time PCR analysis of the mRNA levels of NatD and indicated key EMT-related genes (normalized to GAPDH) in Scr cells, NatD-KD cells, and NatD-KD + Slug cells. Results are shown as mean ± s.d. of three independent experiments. Two-tailed Student’s t-test was used. **P < 0.01 or *P < 0.05 compared with Scr or indicated control. h Western blot analysis of indicated protein levels in Scr cells, NatD-KD cells, and NatD-KD + Slug cells. GAPDH served as a loading control. Data are representative of three independent blots. i Pearson correlation scatter plot of the H score of Slug and NatD in human lung carcinoma (n = 147); r = 0.6672, P < 0.0001
Cellular proteins were extracted by RIPA lysis buffer at high salt concentration (420 mM NaCl), and western blot analysis was performed in accordance with standard protocols. Scans of enhanced chemiluminescence (ECL) films showing uncropped blots are presented in Supplementary Fig. 10. The following antibodies were used for western blotting: NatD (Abcam; ab106408, 1:1000), GAPDH (MBL International; M171-3, 1:5000), Vimentin (BD Biosciences; 550513, 1:1000), E-cadherin (BD Biosciencs; 610181, 1:1000), N-cadherin (Abcam; ab76057, 1:1000), Slug (Abcam; ab27568, 1:500), Zeb1 (ABclonal; A5600, 1:1000), Zeb2 (Abcam; ab138222, 1:500), Twist1 (ABclonal; A7314, 1:1000), Snail (Santa Cruz Biotechnology; sc-271977, 1:500), Histone H4 (PTM Biolabs; PTM-1004, 1:2000), Histone H3(Genscript; A01502, 1:1000), H4K5ac (Millipore; CS204381, 1:1000), H4K8ac (Millipore; CS204357, 1:1000), H4K12ac (Millipore; 06-1352, 1:1000), H4R3me2a (Active Motif; 39705, 1:1000), H4R3me2s (Abcam; ab5823, 1:1000), H4S1ph (Abcam; ab14723, 1:1000), CK2α (Abcam; ab70774, 1:2000), Lamin A/C (Genscript; A01455, 1:2000), and Hsp70 (Genscript; A01236, 1:1000). Peptide pulldown assays were performed according to standard protocols, [44]. Briefly, we coupled streptavidin beads to 2 μg C-terminal biotin-tagged 31-mer N-terminal peptides of histone H4 and to acetylated H4 (Nt-ac-H4), as well as to C-terminal biotin-tagged 20-mer N-terminal peptides of non-acetylated histone H3. The resulting streptavidin-coupled peptides were incubated with H1299 cellular extracts prepared with high salt extraction (420 mM NaCl). We eluted specifically bound protein from stringently washed beads, separated the samples by SDS-PAGE, and visualized proteins by western blot with anti-CK2α antibody. […]

Slug promoter = Slug promoter luciferase reporter assay, H1299 cells; assay type: cell-based, human; settings: 1155-bp Slug promoter in pGL3-basic, beta-galactosidase normalized
Experimental: Response to the reviewers' comments:
Q1. In relation to Query 11 where Slug promoter analyses were requested to functionally test the consequences of epigenetic changes, the authors argue “it is less […]
promoter activity in cytoplasm where functional nucleosomes (composed of histone and DNA) are not formed”. I disagree with the authors’ response since it would invalidate all promoter assays performed in many different situations in which the action of “nuclear” transcription factors is analyzed with exogenous promoters that need to be translocated to the nucleus for functional activity. Thus, although I agree that the epigenetic changes might not be easily reproduced in the exogenous promoters, the authors should made the effort to perform this requested experimental […]
We agree with the reviewer that the experiment should be performed. Therefore, we cloned a 1155-bp Slug promoter fragment [Ref: Morita T et al., J Cell Biol. 2007, 179(5): 1027-1042] into the pGL3-basic luciferase vector (sequence confirmed by DNA sequencing). The activity of Slug promoter in the different situations (control […]
NatD) were analyzed; pSV-beta-Gal plasmid expressing beta-galactosidase was used as the normalization control according to Cold Spring Harbor Protocol [Smale ST.
Beta-galactosidase assay. Cold Spring Harb Protoc 2010: pdb prot5423]. As the […]

Substance: NatD-KD2: Human NatD shRNA KD2: 5′-GGTTGAATGTCTCCATTGA-3′, lentiviral (shRNA lentiviral)
- expression of E-cadherin (H1299 cells; basal, knockdown vs Scr): increased the expression
- expression of N-cadherin and Vimentin (H1299 cells; basal, knockdown vs Scr): reduced the expression
- expression of Slug (H1299 cells; basal, knockdown vs Scr): significantly repressed
- expression of Twist1, Snail, Zeb1, or Zeb2 (H1299 cells; basal, knockdown vs Scr): not changed
- changes of E-cadherin, N-cadherin, Vimentin and Slug expression with TGF-β1 (H1299 cells; presence of TGF-β1 relative to basal): blocked changes of expression levels
- expression of proliferation- and cell cycle-related genes (except CCND2) (H1299 cells; qPCR, vs Scr): did not affect
- Slug promoter luciferase activity (Slug promoter): no significant changes in luciferase activity
